The values below come from patent US20230339949A1, “HETEROCYCLIC SUBSTITUTED FUSED y-CARBOLINE DERIVATIVE, PREPARATION METHOD THEREFOR, INTERMEDIATE THEREOF AND USE THEREOF” (SHUJING BIOPHARMA CO., LTD, priority 2020, published 2023).

Like-named read-outs stand apart in the source and are kept apart here.

The subject of test [1] is DOI-induced head-shaking behavior. Nature of the test: DOI-induced head-shaking behavior in mice. The test is classed as in vivo, ICR mice. As to conditions: Mus musculus, read-out: ED50 (half effective dose). On the procedure: The efficacy of the compounds of the present disclosure was evaluated by the mice model of head-shaking behavior induced by intraperitoneal injection of (±) DOI (a hallucinogenic agent usually used to replicate anti-schizophrenic animal model).
(§1) Experimental animals: ICR mice, male, 8 mice/group, Spelford (Beijing) Biotechnology Co., Ltd.
Preparation of drug: the test compounds were taken, and solvent was added, and ultrasonication was performed.
Administration route and method: oral gavage administration, 10 mL/kg (body weight).
(§2) Administration frequency and duration: single dose.
Animals were stratified by body weight and then randomly divided into blank group, model group, and administration groups, and detailed information of administration is shown in the following table.
Mice were stratified according to body weight and then randomly divided into model group, blank group and each administration group. One hour after the animals were gavage administration of the solvent or drugs, they were placed in a beaker (13 cm in diameter, 19 cm in height) with fresh padding, and the model drug DOI was injected intraperitoneally at a dose of 1 mg/kg. The times of head-shaking were recorded within 0-20 minutes after DOI was injected intraperitoneally.
Head-shaking behavior is defined as rapid rotational twitch of mouse's head or wet dog-like shaking, which should be different from normal hair grooming or inquiry behavior.
(§3) The experimental data were expressed as x±SD, and SPSS statistical software was used to test the homogeneity of variance. If the variance was homogeneous, single factor analysis of variance was performed, and Dunnett t test is used for pairwise comparison. The ED50 was calculated by nonlinear fitting with GraphPad Primis5 software.

Another test concerns the target T1, D2S receptor (Homo sapiens, UniProt P14416).
T1 construct: expressed in transfected cells
Nature of the test: Functional activity test on D2S receptor, cAMP detection (Gi antagonist test). The test is classed as cell-based. The following applies: cultured HEK293/D2S cells, forskolin + dopamine EC90. The source says: (§4) The antagonistic effects of the compounds of the present disclosure on D2L and D2S receptors were detected by cyclic adenosine monophosphate (cAMP) detection method at cell-level.
(§5) • (1) Test compound: compounds of the embodiment of the present disclosure, self-made. • (2) Control compound: dopamine hydrochloride (Sigma, H8502), (+)-Butaclamol hydrochloride (Sigma, D033). • (3) Stable cell line:
(§6) • (1) Preparation of test compounds: the compounds of the embodiments of the present disclosure were respectively dissolved in DMSO to prepare 10 mM mother liquor, and the mother liquor was stored in the nitrogen cabinet for later use. • (2) Preparation of control compound: the control compound was dissolved in DMSO to prepare 10 mM mother liquor, and the mother liquor was repackaged and stored in the refrigerator at −80° C. for later use. • (3) IBMX was dissolved in DMSO to prepare 0.5 M stock solution and the stock solution was cryopreserved at −80° C. • (4) Forskolin was dissolved in DMSO to prepare 1 mM stock solution and the stock solution was cryopreserved at −80° C. for later use. • (5) Experimental buffer: 5× stimulation buffer was diluted to 1× with ddH2O and IBMX with a final concentration of 0.5 mM was added thereto, and the solution was mixed well for later use.
(§7) • (1) Preparation of compounds: the test compounds and positive control compound (+)-Butaclamol hydrochloride were diluted gradient using Bravo in the compound plate (Greiner-781280), and the initial concentration of working solution was 20 μM, and the working solution was diluted at 4-fold for 10 concentrations and centrifuged at 1000 rpm for 1 minute for later use. • (2) Cryopreserved D2L cells: cells was taken out from the liquid nitrogen tank and thaw in a water bath at 37° C., and the cell suspension was transferred to a centrifuge tube containing HBSS buffer, and centrifuged at 750 rpm for 5 minutes.
(§8) Cultured D2S cells: after absorbing the culture medium, the cells were washed with 3 mL PBS, sucked out, digested with 0.05% Trypsin for 3 min, terminated with equal volume of culture medium, transferred to centrifuge tube, and centrifuged at 750 rpm for 5 minutes. After absorbing the liquid, the centrifuge tube was added with a buffer solution containing HBSS and re-suspend, and centrifuged at 750 rpm for 5 minutes. • (3) The supernatant was discarded, and the precipitate was re-suspended with proper amount of experimental buffer, and 20 μL was taken for cell counting. • (4) Appropriate amount of cell suspension was removed, and the cell suspension was diluted to 2×10^5 cells/mL with experimental buffer, and the cell plate (PerkinElmer-6008280) was added with 5 μL/well cell suspension, and centrifuged at 1000 rpm for 1 minute. • (5) 5 μL/well was transferred to the cell plate with Bravo, and the cell plate was centrifuged at 1000 rpm for 1 minute, then the cell plate was closed and incubated at room temperature for 15 minutes. • (6) Forskolin was transferred to the cell plate with Tecan-D300e, and Dopamine hydrochloride with a final concentration of EC90 was transferred to the cell plate. • (7) The cell plate was centrifuged at 1000 rpm for 1 minute, then sealed and incubated at room temperature for 45 minutes. • (8) Standard curve: cAMP with the stock solution concentration of 2848 nM was diluted 4-fold continuously at 8 points according to the initial maximum concentration of 712 nM, and 10 μL/well was taken out to add to the cell plate. • (9) 10 μL/well of detection solution containing cAMP-d2 and Anti-cAMP-Cryptate (diluted with pyrolysis buffer at 1:20) was added to the cell plate, and the cell plate was centrifuged at 1000 rpm for 1 minute, and incubated at room temperature without light for 1 hour. • (10) Detection: the cell plate was centrifuged at 1000 rpm for 1 minute, and the plate was read with Envision (excitation light 340 nm, emission light 620 nm and 665 nm). […]

A further test deals with T2, D2L receptor (Homo sapiens, UniProt P14416).
T2 construct: expressed in transfected cells
T2 sequence (P14416 whole entry): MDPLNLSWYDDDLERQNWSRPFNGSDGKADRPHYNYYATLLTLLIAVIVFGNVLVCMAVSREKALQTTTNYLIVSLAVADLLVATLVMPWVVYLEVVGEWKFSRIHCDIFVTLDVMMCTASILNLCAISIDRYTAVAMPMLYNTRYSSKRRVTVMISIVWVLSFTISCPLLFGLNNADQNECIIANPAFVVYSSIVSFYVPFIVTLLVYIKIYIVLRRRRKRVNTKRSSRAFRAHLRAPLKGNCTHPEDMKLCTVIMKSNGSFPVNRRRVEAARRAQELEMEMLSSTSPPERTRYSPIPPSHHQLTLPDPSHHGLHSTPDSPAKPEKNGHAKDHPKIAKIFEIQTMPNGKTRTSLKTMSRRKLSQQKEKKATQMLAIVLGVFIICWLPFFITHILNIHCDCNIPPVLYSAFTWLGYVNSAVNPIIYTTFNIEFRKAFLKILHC
Nature of the test: Functional activity test on D2L receptor, cAMP detection (Gi antagonist test). It counts as cell-based. As to conditions: cryopreserved CHO-K1/D2L/Gα15 cells, forskolin + dopamine EC90.
Source text: as §4, §5, §6, §7, §8

Test [2] has as its system MK-801 induced hyperactivity behavior. Nature of the test: MK-801 induced hyperactivity behavior in mice. The test is classed as in vivo, ICR mice. The following applies: for ED50: Mus musculus, read-out: ED50 (half effective dose). On the procedure: The efficacy of the compounds of the present disclosure was evaluated by high activity model of mice induced by intraperitoneal injection of MK-801.
as §1
Preparation of drug: the test compounds were taken, and pure water was added, and ultrasonication was performed.
Administration route and method: gavage administration, 10 mL/kg (body weight).
as §2
Animals were stratified by body weight and then randomly divided into blank group, model group, and administration group, and detailed information of administration is shown in the following table.
Mice were stratified according to body weight and then randomly divided into model group, blank group and each administration group. One hour after the gavage administration of solvent or drug, 0.3 mg/kg MK-801 was injected intraperitoneally (the blank group was injected with the same volume of physiological saline), and then the mice were put into an independent activity box (a black polyethylene box with the specification of 29 cm×29 cm×30 cm) for video recording for 60 minutes, and video analysis was performed at the end of the recording to evaluate the activity of the mice.
as §3

Another test concerns the target T3, 5-HT2A receptor (Homo sapiens, UniProt P28223).
T3 construct: expressed in transfected cells
The test can be described thus: Functional detection experiment of 5-HT2A receptor (cultured cells), calcium influx assay. It counts as cell-based. An excerpt:
The antagonistic effect of the compound of the present disclosure on the 5-HT2A receptor was detected by a calcium influx assay at the cellular level.
• (1) Test compounds: compounds of the embodiments of the present disclosure, self-made. • (2) Control compound: serotonin hydrochloride 5-hydroxytryptamine (Sigma, H9523), Ketanserin (Targetmol, T1066). • (3) Stable cell line:
• (1) Preparation of test compounds: the compounds of the embodiments of the present disclosure were respectively dissolved in DMSO to prepare 10 mM mother liquor, and the mother liquor was stored in the nitrogen cabinet for later use. • (2) Preparation of control compound: the control compound was dissolved in DMSO to prepare 10 mM mother liquor, and the mother liquor was repackaged and stored in the refrigerator at -80° C. for later use. • (3) Preparation of 250 mM probenecid solution: 1 mL experimental buffer was added into a tube containing 77 mg powder, and the powder was dissolved by vortex oscillation. • (4) Preparation of 2× fluorescent probe solution: a bottle of fluorescent probe dry powder was taken out to balance to room temperature, and 10 mL of experimental buffer solution and 200 μL of 250 mM probenecid solution were added thereto, and the mixture was scrolled and let stand for 5 minutes to ensure complete dissolution. • (5) Experimental buffer HBSS: HBSS and HEPES were mixed evenly in a ratio of 50:1, stored in a refrigerator at 4° C., and heated at 37° C. when used.
• (1) Cells were taken out from the liquid nitrogen tank and melted in a water bath at 37° C. The surface of the cryopreservation tube was wiped with 75% alcohol and put in the biosafety cabinet. • (2) The cell suspension was transferred to a 15 mL centrifuge tube with 4 mL preheated plating medium, and the tube was centrifuged at 1000 rpm for 5 minutes. • (3) The supernatant was discarded, and 10 mL of plating medium was added and blown gently, and the mixture was transferred to a culture dish for growth. After the cells had adhered to the wall for 24 hours, they were replaced with growth medium for continuous culture.
• (1) The logarithmic growth cells was taken and the cells grew to about 85%-90%. The cells were performed the following operations: cell cleaning, digestion, termination, then transferred to a 15 mL centrifuge tube, and the tube was centrifuged at room temperature at 1000 rpm for 5 minutes. • (2) The supernatant was discarded, and a certain plating medium was added and blown gently. 20 μL of cell suspension was taken out and counted. • (3) Cells were diluted to 1×10^6 cells/mL and 20 μL of cell suspension was added to each well of the cell plate (Greiner-781946), so that the density of each well is 2×10^4 cells/well. • (4) The cell plate was incubated in an incubator with 5% CO2 at 37° C. for 16-24 hours. […]

Setting [3] is: male ICR mice, single gavage dose 1 h before MK-801 0.3 mg/kg i.p., activity recorded 60 min.
[4] abbreviates: cultured CHO-K1/5-HT2A cells, calcium influx (FLIPR), antagonist mode vs agonist EC80, read-out: 5-HT2A IC50.

T1 sequence (P14416 1-414 isoform P14416-2): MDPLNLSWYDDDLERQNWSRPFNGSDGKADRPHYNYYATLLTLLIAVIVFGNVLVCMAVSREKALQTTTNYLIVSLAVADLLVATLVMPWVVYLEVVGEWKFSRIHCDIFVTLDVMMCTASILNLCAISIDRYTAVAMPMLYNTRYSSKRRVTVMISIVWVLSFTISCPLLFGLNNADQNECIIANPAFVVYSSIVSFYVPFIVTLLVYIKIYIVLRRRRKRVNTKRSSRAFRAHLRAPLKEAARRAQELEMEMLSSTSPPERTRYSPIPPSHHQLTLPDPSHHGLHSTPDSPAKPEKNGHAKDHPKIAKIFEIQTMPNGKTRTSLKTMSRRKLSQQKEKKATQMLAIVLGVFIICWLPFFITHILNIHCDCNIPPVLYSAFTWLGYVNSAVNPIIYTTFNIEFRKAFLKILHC
T3 sequence (P28223 whole entry): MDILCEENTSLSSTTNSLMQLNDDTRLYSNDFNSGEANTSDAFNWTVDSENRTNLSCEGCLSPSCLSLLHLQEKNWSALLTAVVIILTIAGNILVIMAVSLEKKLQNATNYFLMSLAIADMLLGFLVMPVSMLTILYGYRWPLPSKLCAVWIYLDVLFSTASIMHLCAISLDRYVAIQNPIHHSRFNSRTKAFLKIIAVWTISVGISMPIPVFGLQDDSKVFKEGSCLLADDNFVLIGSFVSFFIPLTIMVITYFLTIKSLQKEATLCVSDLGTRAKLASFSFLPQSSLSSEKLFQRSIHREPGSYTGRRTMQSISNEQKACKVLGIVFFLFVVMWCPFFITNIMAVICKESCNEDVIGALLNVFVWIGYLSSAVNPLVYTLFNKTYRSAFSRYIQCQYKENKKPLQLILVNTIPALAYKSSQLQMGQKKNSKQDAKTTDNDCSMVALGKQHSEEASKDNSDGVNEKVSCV

Usually ED50 stands for the midpoint of the dose-response relation. For orientation: IC50 means the point on the concentration scale where inhibition reaches its midpoint. As to `CCN1C(=O)CN2c3c1cccc3C1(C)CN(CCCC(=O)c3ccc(F)cc3)CCC21` (centres unmarked) [Embodiment 3, 3-ethyl-8-(4-(4-fluorophenyl)-4-oxobutyl)-6b-methyl-6b,7,8,9,10,10a-hexahydro-1H-pyrido[3′,4′:4,5]pyrrolo[1,2,3-de]quinoxalin-2(3H)-one], the ED50 in test [1] was 0.21 mg/kg. Besides, the IC50 at D2S receptor was 207 nM; at D2L receptor, 51.4 nM.

Consider `CN1CCN2c3c1cccc3C1(C)CN(CCCC(=O)c3ccc(F)cc3)CCC21` (centres unmarked) [Embodiment 7, 4-(3,6b-dimethyl-2,3,6b,9,10,10a-hexahydro-1H-pyrido[3′,4′:4,5]pyrrolo[1,2,3-de]quinoxalin-8(7H)-yl)-1-(4-fluorophenyl)butan-1-one], for which the ED50 in test [2] worked out at 0.09 mg/kg. Besides, in test [2] (setting [3]), the “MED (lowest effective dose)” value amounted to 0.1 mg/kg. The IC50 at 5-HT2A receptor is 3.5 nM.

Consider `CN1CCN2c3c(cccc31)C1CN(CCCC(=O)c3ccc(F)cc3)CCC12` (centres unmarked) [Comparative embodiment 2, 1-(4-fluorophenyl)-4-(3-methyl-2,3,6b,9,10,10a-hexahydro-1H-pyrido[3′,4′:4,5]pyrrolo[1,2,3-de]quinoxalin-8(7H)-yl)butan-1-one, reference compound], for which the results for the IC50 at D2S receptor and at D2L receptor were 622 nM and 35.8 nM, respectively.

As to `CN1C(=O)CN2c3c(cccc31)[C@@H]1CN(CCCC(=O)c3ccc(F)cc3)CC[C@@H]12` [Comparative embodiment 1-A, reference compound], the concentration for half-maximal inhibition (IC50) at D2S receptor was determined as 264 nM; at D2L receptor, 88.8 nM; at 5-HT2A receptor (setting [4]) it was 9.11 nM.

Take `CN1C(=O)C(C)(C)N2c3c1cccc3C1(C)CN(CCCC(=O)c3ccc(F)cc3)CCC21` (centres unmarked) [Embodiment 4, 8-(4-(4-fluorophenyl)-4-oxobutyl)-1,1,3,6b-tetramethyl-6b,7,8,9,10,10a-hexahydro-1H-pyrido [3′,4′:4,5]pyrrolo[1,2,3-de]quinoxalin-2(3H)-one]: the ED50 in test [1] amounted to 0.42 mg/kg. The IC50 on 5-HT2A receptor is 19.7 nM.

With `CN1C(=O)CN2c3c(cccc31)C1CN(CCCC(=O)c3ccc(F)cc3)CCC12` (centres unmarked) [Comparative embodiment 1, 8-(4-(4-fluorophenyl)-4-oxobutyl)-3-methyl-6b,7,8,9,10,10a-hexahydro-1H-pyrido [3′,4′:4,5]pyrrolo[1,2,3-de]quinoxalin-2(3H)-one, reference compound], the 50% effective dose (ED50) in test [2] (setting [3]) was 1.28 mg/kg. The “MED (lowest effective dose)” value in test [2] (setting [3]) turned out to be 1 mg/kg. Further, the IC50 was 364 nM at D2S receptor, 200 nM at D2L receptor and 44.4 nM on 5-HT2A receptor (setting [4]).

Consider `Cn1c(=O)c(=O)n2c3c(cccc31)C1(C)CN(CCCC(=O)c3ccc(F)cc3)CCC21` (centres unmarked) [Embodiment 5, 8-(4-(4-fluorophenyl)-4-oxobutyl)-3,6b-dimethyl-6b,7,8,9,10,10a-hexahydro-1H-pyrido[3′,4′:4,5]pyrrolo[1,2,3-de]quinoxaline-1,2(3H)-dione], for which the IC50 was 93.4 nM on D2S receptor and 13.1 nM at D2L receptor.

Regarding `CN1C(=O)CN2c3c1cccc3[C@@]1(C)CN(CCCC(=O)c3ccc(F)cc3)CC[C@@H]21` [Embodiment 1-B, (6bS,10aR)-8-(4-(4-fluorophenyl)-4-oxobutyl)-3,6b-dimethyl-6b,7,8,9,10,10a-hexahydro-1H-pyrido[3′,4′:4,5]pyrrolo [1,2,3-de]quinoxalin-2(3H)-one], the IC50 on D2S receptor came out at 63.1 nM; at D2L receptor it was 15.5 nM; at 5-HT2A receptor (setting [4]) it was 108 nM.
